Calls of active or inactive are those of the source. No cut-off for these calls is given here.
What was measured:
Assay type in all cases: functional
J774.A1 [1] = test: Induction of IL10 secretion in mouse J774A1 cells at 5 ug/mL after 48 hrs by ELISA relative to control
J774.A1 [2] = test: Induction of IFN-gamma secretion in mouse J774A1 cells at 5 ug/mL after 48 hrs by ELISA relative to control
J774.A1 [3] = test: Induction of MCP-1 secretion in mouse J774A1 cells at 5 ug/mL after 48 hrs by ELISA relative to control
J774.A1 [4] = test: Induction of TNF-alpha secretion in mouse J774A1 cells at 5 ug/mL after 48 hrs by ELISA relative to control
J774.A1 [5] = test: Reduction of TNF-alpha secretion in mouse J774A1 cells at 5 ug/mL after 48 hrs by ELISA relative to control; design: scale not given: the % may be the effect or the level left

CC(C)C[C@@H]1NC(=O)[C@H](Cc2ccc(O)cc2)NC1=O
Activity (J774.A1 [1]): inactive
fold change (FC) (J774.A1 [2]): 1.82
fold change (FC) (J774.A1 [3]): 2.24
Activity (J774.A1 [4]): inactive
Activity (J774.A1 [5]): 88.3%

C[C@@H]1NC(=O)[C@@H]2C[C@@H](O)CN2C1=O
fold change (FC) (J774.A1 [1]): 1.65
fold change (FC) (J774.A1 [2]): 4.49
fold change (FC) (J774.A1 [3]): 3.09
fold change (FC) (J774.A1 [4]): 1.12

O=C1N[C@@H](Cc2ccccc2)C(=O)N2CCC[C@@H]12
fold change (FC) (J774.A1 [1]): 1.54
fold change (FC) (J774.A1 [2]): 1.62
fold change (FC) (J774.A1 [3]): 2.05
Activity (J774.A1 [4]): inactive

O=C1NCC(=O)N2CCC[C@@H]12 [CYCLO(PROLYLGLYCYL)]
fold change (FC) (J774.A1 [1]): 1.29
fold change (FC) (J774.A1 [2]): 3.5
fold change (FC) (J774.A1 [3]): 1.86
Activity (J774.A1 [4]): inactive

C[C@@H]1NC(=O)[C@@H]2CCCN2C1=O
fold change (FC) (J774.A1 [1]): 1.56
fold change (FC) (J774.A1 [2]): 1.36
fold change (FC) (J774.A1 [3]): 1.47
